Measured values from patent US12227495B2, “Herbicidal compounds” (SYNGENTA CROP PROTECTION AG, priority 2018, dated 2025).

Tests used:
Format in all cases: in vivo
[1] = test system: Ipomoea hederacea (IPOHE); assay: Pre-emergence herbicide test, glasshouse, percentage damage; details: rate 1000 g/ha, evaluated after 13 days
Procedure, shortened: (§1)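 Percentage damage, recorded 13 days after treatment, is given as a five-point score (1=0-20%, 2=21-40%, 3=41-60%, 4=61-80%, 5=81-100%). Plants grown in soil pots under 24/16 °C, 14 h light and 65% humidity received a 500 g/ha spray (unless stated otherwise).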

Setaria faberi (SETFA) [2] = assay: as above; details: rate 1000 g/ha, evaluated after 13 days
Procedure, shortened: as §1

[3] = test system: Amaranthus retoflexus (AMARE); assay: as above; details: rate 1000 g/ha, evaluated after 13 days
Procedure, shortened: as §1

Solanum nigrum (SOLNI) [4] = assay: as above; details: rate 1000 g/ha, evaluated after 13 days
Procedure, shortened: as §1

Lolium perenne (LOLPE) [5] = assay: as above; details: rate 1000 g/ha, evaluated after 13 days
Procedure, shortened: as §1

[6] = test system: Echinochloa crus-galli (ECHCG); assay: as above; details: rate 1000 g/ha, evaluated after 13 days
Procedure, shortened: as §1

[7] = test system: Ipomoea hederacea (IPOHE); assay: Post-emergence herbicide test, glasshouse, percentage damage; details: 1000 g/ha, evaluated after 13 days
Procedure, shortened: as §1

Setaria faberi (SETFA) [8] = assay: as above; details: 1000 g/ha, evaluated after 13 days
Procedure, shortened: as §1

[9] = test system: Amaranthus retoflexus (AMARE); assay: as above; details: 1000 g/ha, evaluated after 13 days
Procedure, shortened: as §1

Solanum nigrum (SOLNI) [10] = assay: as above; details: 1000 g/ha, evaluated after 13 days
Procedure, shortened: as §1

Lolium perenne (LOLPE) [11] = assay: as above; details: 1000 g/ha, evaluated after 13 days
Procedure, shortened: as §1

[12] = test system: Echinochloa crus-galli (ECHCG); assay: as above; details: 1000 g/ha, evaluated after 13 days
Procedure, shortened: as §1

Fc1cc(C(F)(F)F)cnc1Oc1cccc(Br)c1-c1cc(C(F)F)no1 [Compound A104]
Pre-emergence Test IPOHE percentage damage (five point scale) [1]: 4 (4=61-80%)
Pre-emergence Test SETFA percentage damage (five point scale) (Setaria faberi (SETFA) [2]): 5 (5=81-100%)
Pre-emergence Test AMARE percentage damage (five point scale) [3]: 4 (4=61-80%)
Pre-emergence Test SOLNI percentage damage (five point scale) (Solanum nigrum (SOLNI) [4]): 2 (2=21-40%)
Pre-emergence Test LOLPE percentage damage (five point scale) (Lolium perenne (LOLPE) [5]): 4 (4=61-80%)
Pre-emergence Test ECHCG percentage damage (five point scale) [6]: 4 (4=61-80%)
percentage damage caused to the plant, IPOHE [7]: 4 (4=61-80%)
percentage damage caused to the plant, SETFA (Setaria faberi (SETFA) [8]): 4 (4=61-80%)
percentage damage caused to the plant, AMARE [9]: 4 (4=61-80%)
percentage damage caused to the plant, SOLNI (Solanum nigrum (SOLNI) [10]): 5 (5=81-100%)
percentage damage caused to the plant, LOLPE (Lolium perenne (LOLPE) [11]): 3 (3=41-60%)
percentage damage caused to the plant, ECHCG [12]: 4 (4=61-80%)

N#Cc1cc(Cl)cnc1Oc1cccc(Br)c1-c1cc(C(F)F)no1 [Compound A105]
Pre-emergence Test IPOHE percentage damage (five point scale) [1]: 5 (5=81-100%)
Pre-emergence Test SETFA percentage damage (five point scale) (Setaria faberi (SETFA) [2]): 5 (5=81-100%)
Pre-emergence Test AMARE percentage damage (five point scale) [3]: 5 (5=81-100%)
Pre-emergence Test SOLNI percentage damage (five point scale) (Solanum nigrum (SOLNI) [4]): 5 (5=81-100%)
Pre-emergence Test LOLPE percentage damage (five point scale) (Lolium perenne (LOLPE) [5]): 5 (5=81-100%)
Pre-emergence Test ECHCG percentage damage (five point scale) [6]: 5 (5=81-100%)
percentage damage caused to the plant, IPOHE [7]: 5 (5=81-100%)
percentage damage caused to the plant, SETFA (Setaria faberi (SETFA) [8]): 5 (5=81-100%)
percentage damage caused to the plant, AMARE [9]: 5 (5=81-100%)
percentage damage caused to the plant, SOLNI (Solanum nigrum (SOLNI) [10]): 5 (5=81-100%)
percentage damage caused to the plant, LOLPE (Lolium perenne (LOLPE) [11]): 4 (4=61-80%)
percentage damage caused to the plant, ECHCG [12]: 4 (4=61-80%)

FC(F)c1cc(-c2c(Br)cccc2Oc2ccc(Br)cn2)on1 [Compound A106]
Pre-emergence Test IPOHE percentage damage (five point scale) [1]: 3 (3=41-60%)
Pre-emergence Test SETFA percentage damage (five point scale) (Setaria faberi (SETFA) [2]): 5 (5=81-100%)
Pre-emergence Test AMARE percentage damage (five point scale) [3]: 4 (4=61-80%)
Pre-emergence Test SOLNI percentage damage (five point scale) (Solanum nigrum (SOLNI) [4]): 3 (3=41-60%)
Pre-emergence Test LOLPE percentage damage (five point scale) (Lolium perenne (LOLPE) [5]): 5 (5=81-100%)
Pre-emergence Test ECHCG percentage damage (five point scale) [6]: 5 (5=81-100%)
percentage damage caused to the plant, IPOHE [7]: 4 (4=61-80%)
percentage damage caused to the plant, SETFA (Setaria faberi (SETFA) [8]): 5 (5=81-100%)
percentage damage caused to the plant, AMARE [9]: 5 (5=81-100%)
percentage damage caused to the plant, SOLNI (Solanum nigrum (SOLNI) [10]): 5 (5=81-100%)
percentage damage caused to the plant, LOLPE (Lolium perenne (LOLPE) [11]): 5 (5=81-100%)
percentage damage caused to the plant, ECHCG [12]: 4 (4=61-80%)

N#Cc1cccnc1Oc1cccc(Br)c1-c1cc(C(F)F)no1 [Compound A107]
Pre-emergence Test IPOHE percentage damage (five point scale) [1]: 3 (3=41-60%)
Pre-emergence Test SETFA percentage damage (five point scale) (Setaria faberi (SETFA) [2]): 5 (5=81-100%)
Pre-emergence Test AMARE percentage damage (five point scale) [3]: 5 (5=81-100%)
Pre-emergence Test SOLNI percentage damage (five point scale) (Solanum nigrum (SOLNI) [4]): 2 (2=21-40%)
Pre-emergence Test LOLPE percentage damage (five point scale) (Lolium perenne (LOLPE) [5]): 2 (2=21-40%)
Pre-emergence Test ECHCG percentage damage (five point scale) [6]: 4 (4=61-80%)
percentage damage caused to the plant, IPOHE [7]: 4 (4=61-80%)
percentage damage caused to the plant, SETFA (Setaria faberi (SETFA) [8]): 5 (5=81-100%)
percentage damage caused to the plant, AMARE [9]: 5 (5=81-100%)
percentage damage caused to the plant, SOLNI (Solanum nigrum (SOLNI) [10]): 5 (5=81-100%)
percentage damage caused to the plant, LOLPE (Lolium perenne (LOLPE) [11]): 3 (3=41-60%)
percentage damage caused to the plant, ECHCG [12]: 4 (4=61-80%)

O=[N+]([O-])c1ccc(Oc2cccc(Cl)c2-c2cc(C(F)F)no2)nc1 [Compound A108]
Pre-emergence Test IPOHE percentage damage (five point scale) [1]: 1 (1=0-20%)
Pre-emergence Test SETFA percentage damage (five point scale) (Setaria faberi (SETFA) [2]): 5 (5=81-100%)
Pre-emergence Test AMARE percentage damage (five point scale) [3]: 4 (4=61-80%)
Pre-emergence Test SOLNI percentage damage (five point scale) (Solanum nigrum (SOLNI) [4]): 4 (4=61-80%)
Pre-emergence Test LOLPE percentage damage (five point scale) (Lolium perenne (LOLPE) [5]): 5 (5=81-100%)
Pre-emergence Test ECHCG percentage damage (five point scale) [6]: 5 (5=81-100%)
percentage damage caused to the plant, IPOHE [7]: 3 (3=41-60%)
percentage damage caused to the plant, SETFA (Setaria faberi (SETFA) [8]): 4 (4=61-80%)
percentage damage caused to the plant, AMARE [9]: 5 (5=81-100%)
percentage damage caused to the plant, SOLNI (Solanum nigrum (SOLNI) [10]): 4 (4=61-80%)
percentage damage caused to the plant, LOLPE (Lolium perenne (LOLPE) [11]): 4 (4=61-80%)
percentage damage caused to the plant, ECHCG [12]: 4 (4=61-80%)

FC(F)c1cc(-c2c(Cl)cccc2Oc2ncc(Cl)cc2Cl)on1 [Compound A109]
Pre-emergence Test IPOHE percentage damage (five point scale) [1]: 1 (1=0-20%)
Pre-emergence Test SETFA percentage damage (five point scale) (Setaria faberi (SETFA) [2]): 4 (4=61-80%)
Pre-emergence Test AMARE percentage damage (five point scale) [3]: 4 (4=61-80%)
Pre-emergence Test SOLNI percentage damage (five point scale) (Solanum nigrum (SOLNI) [4]): 3 (3=41-60%)
Pre-emergence Test LOLPE percentage damage (five point scale) (Lolium perenne (LOLPE) [5]): 2 (2=21-40%)
Pre-emergence Test ECHCG percentage damage (five point scale) [6]: 2 (2=21-40%)
percentage damage caused to the plant, IPOHE [7]: 4 (4=61-80%)
percentage damage caused to the plant, SETFA (Setaria faberi (SETFA) [8]): 5 (5=81-100%)
percentage damage caused to the plant, AMARE [9]: 5 (5=81-100%)
percentage damage caused to the plant, SOLNI (Solanum nigrum (SOLNI) [10]): 5 (5=81-100%)
percentage damage caused to the plant, LOLPE (Lolium perenne (LOLPE) [11]): 3 (3=41-60%)
percentage damage caused to the plant, ECHCG [12]: 4 (4=61-80%)

FC(F)c1cc(-c2c(Cl)cccc2Oc2ccc(C(F)(F)F)cn2)on1 [Compound A110]
Pre-emergence Test IPOHE percentage damage (five point scale) [1]: 4 (4=61-80%)
Pre-emergence Test SETFA percentage damage (five point scale) (Setaria faberi (SETFA) [2]): 5 (5=81-100%)
Pre-emergence Test AMARE percentage damage (five point scale) [3]: 5 (5=81-100%)
Pre-emergence Test SOLNI percentage damage (five point scale) (Solanum nigrum (SOLNI) [4]): 4 (4=61-80%)
Pre-emergence Test LOLPE percentage damage (five point scale) (Lolium perenne (LOLPE) [5]): 4 (4=61-80%)
Pre-emergence Test ECHCG percentage damage (five point scale) [6]: 4 (4=61-80%)
percentage damage caused to the plant, IPOHE [7]: 4 (4=61-80%)
percentage damage caused to the plant, SETFA (Setaria faberi (SETFA) [8]): 5 (5=81-100%)
percentage damage caused to the plant, AMARE [9]: 5 (5=81-100%)
percentage damage caused to the plant, SOLNI (Solanum nigrum (SOLNI) [10]): 5 (5=81-100%)
percentage damage caused to the plant, LOLPE (Lolium perenne (LOLPE) [11]): 4 (4=61-80%)
percentage damage caused to the plant, ECHCG [12]: 4 (4=61-80%)

Fc1cccc(Oc2cccc(Cl)c2-c2cc(C(F)F)no2)n1 [Compound A111]
Pre-emergence Test IPOHE percentage damage (five point scale) [1]: 1 (1=0-20%)
Pre-emergence Test SETFA percentage damage (five point scale) (Setaria faberi (SETFA) [2]): 5 (5=81-100%)
Pre-emergence Test AMARE percentage damage (five point scale) [3]: 5 (5=81-100%)
Pre-emergence Test SOLNI percentage damage (five point scale) (Solanum nigrum (SOLNI) [4]): 4 (4=61-80%)
Pre-emergence Test LOLPE percentage damage (five point scale) (Lolium perenne (LOLPE) [5]): 4 (4=61-80%)
Pre-emergence Test ECHCG percentage damage (five point scale) [6]: 5 (5=81-100%)
percentage damage caused to the plant, IPOHE [7]: 4 (4=61-80%)
percentage damage caused to the plant, SETFA (Setaria faberi (SETFA) [8]): 5 (5=81-100%)
percentage damage caused to the plant, AMARE [9]: 5 (5=81-100%)
percentage damage caused to the plant, SOLNI (Solanum nigrum (SOLNI) [10]): 5 (5=81-100%)
percentage damage caused to the plant, LOLPE (Lolium perenne (LOLPE) [11]): 4 (4=61-80%)
percentage damage caused to the plant, ECHCG [12]: 4 (4=61-80%)

FC(F)c1cc(-c2c(Cl)cccc2Oc2cc(C(F)(F)F)ccn2)on1 [Compound A112]
Pre-emergence Test IPOHE percentage damage (five point scale) [1]: 1 (1=0-20%)
Pre-emergence Test SETFA percentage damage (five point scale) (Setaria faberi (SETFA) [2]): 5 (5=81-100%)
Pre-emergence Test AMARE percentage damage (five point scale) [3]: 5 (5=81-100%)
Pre-emergence Test SOLNI percentage damage (five point scale) (Solanum nigrum (SOLNI) [4]): 2 (2=21-40%)
Pre-emergence Test LOLPE percentage damage (five point scale) (Lolium perenne (LOLPE) [5]): 3 (3=41-60%)
Pre-emergence Test ECHCG percentage damage (five point scale) [6]: 4 (4=61-80%)
percentage damage caused to the plant, IPOHE [7]: 3 (3=41-60%)
percentage damage caused to the plant, SETFA (Setaria faberi (SETFA) [8]): 4 (4=61-80%)
percentage damage caused to the plant, AMARE [9]: 4 (4=61-80%)
percentage damage caused to the plant, SOLNI (Solanum nigrum (SOLNI) [10]): 4 (4=61-80%)
percentage damage caused to the plant, LOLPE (Lolium perenne (LOLPE) [11]): 3 (3=41-60%)
percentage damage caused to the plant, ECHCG [12]: 3 (3=41-60%)
